Where two headings read alike, the source gives them in different places. Marks after values point to notes of the source that are not given here.
Assays:
[1] = tested on: Rauscher MuLV; test: Anti-viral response to Rauscher MuLV; assay type: in vivo, mice
Source text: Innate mechanisms of anti-viral immunity are important to survival of the host. The Rauscher murine leukemia virus (MuLV) is an example of a highly virulent animal retrovirus infection, first isolated and characterized by Dr. Rauscher from BALB/c mouse tissues in 1962. […] The virus employed in present GLP/blinded study was a murine leukemia complex known to induce progressive erythroleukemia in mice (i.e., Rauscher MuLV and replication-defective Rauscher spleen focus-forming virus). Disease manifested within about 6 days with death by about 50 days. Measurements of splenomegaly, blood reverse transcriptase, virus plaque assays (i.e., XC-plaque assay for viremia using SC-1 host cells) and serum anti-viral antibody titers were used to assess infection. Spleens achieved about 2.0 grams in weight within 21 days of infection, as compared with a normal spleen weights in an uninfected animals of about 0.1 gram.
Mice were inoculated with Rauscher MuLV complex (0.1 ml/7.8×10^4 PFU/mL) on day 0 and sacrificed on day 21. Test groups were comprised of 10 mice and control groups 6 mice. Control articles included saline and AZT (in drinking water at about 1.25 mg/mouse/day≈63 mg/kg/day/mouse). […] A non-infected group of mice was also sacrificed on day 21 to provide normal control values.
In EXAMPLE 38, SC-1 cells were originally derived from murine embryos, and XC cells (a rat tumor cell line induced by Rous Sarcoma Virus) were obtained from the ATCC in Rockville, Md.

[2] = tested on: C. albicans; assay type: in vivo, mice
[3] = tested on: Staphylococci; test: Antibiotic sensitivity (doubling-dilution, MIC-2000) of patient isolates before and after Stage 1; assay type: cell-based
Experimental: Antibiotics were administered according to established dosages and routes: i.e., penicillin, Ampicillin, oxacillin, tetracycline, erythromycin, garamycin; administered by intramuscular route. Antibiotics were chosen according to the antibiotic sensitivity of the Staphylococci isolated from the respective patients. (Antibiotic sensitivity was determined by testing staphylococcal isolates for their sensitivity in an antibiotic sensitivity doubling-dilution assay with the aid of the semi-automatic MIC-2000 system, Dynatech, USA).
Staphylococci were isolated from patients before and after treatment in Stage 1 with L-Glu-L-Trp in order to determine whether a favorable reversal of T-lymphocyte immunodeficiency might lead to a change in the antibiotic sensitivity. The isolated bacterial colonies following Stage I were typed as follows: namely, in 16 patients S. aureus, in 34, S. epidermidis, in 2 saprophytic Staphylococci. In all cases the same types of Staphylococci were isolated following treatment with L-Glu-L-Trp, but in 4 patients the predominant Staphylococci in the isolates changed from S. aureus to S. epidermidis (n=2), and saprophytic Staphylococci (n=2).
Antibiotic sensitivity of Staphylococci were determined by doubling-dilution methods with the aid of the semiautomatic MIC-2000 system (Dynatech, USA).

[4] = tested on: E. coli; test: Survival after acute peritonitis with LD100 dose of E. coli; assay type: in vivo, mice; conditions: 1 MED
[5] = tested on: Staphylococcus aureus; test: Survival after Staphylococcus aureus peritonitis, therapeutic treatment 1 hour after challenge; assay type: in vivo, mice; conditions: 1 MED
Experimental: EXAMPLES 32-34, above, test substance (i.e., L-Glu-L-Trp alone or in combination with antibiotic, or antibiotic alone) was injected sc, ip, po one hour after the bacterial challenge.

[6] = tested on: Staphylococcus aureus; test: Survival after acute peritonitis with LD100 dose of antibiotic-resistant Staphylococcus aureus, prophylactic treatment; conditions: for Percentage Survivors: 1 MED
[7] = tested on: hepatitis B; test: Children with chronic persistent hepatitis B; assay type: in vivo, human
Experimental: In accord with a USSR Ministry of Health decision 125 children suffering with chronic persistent hepatitis B were entered into this trial over a two month period. Group 1 consisted of 35 children who received decaris immunomodulatory therapy; Group 2, 38 children who received thymalin treatments; Group 3, […] who received L-Glu-L-Trp; and, Group 4, 32 children who received only conventional symptom specific therapy.
L-Glu-L-Trp was administered at a dose of 2 μg/kg of body mass, im, daily for […], and a repeat (identical) course of treatment was administered 10 days after termination of the first course.

[8] = tested on: YAC-1 target cells; test: NK cytotoxic activity of splenocytes on YAC-1 target cells; assay type: in vivo, C3H/HeJ mice
[9] = tested on: Mycobacterium tuberculosis; design: species or system human; conditions: in vivo
[10] = tested on: Pseudomonas aeruginosa; test: Survival after acute peritonitis with LD100 dose of Pseudomonas aeruginosa; assay type: in vivo, mice; conditions: 1 MED
[11] = 25 mg/kg, days 0, 1, 2, 3, and 4
[12] = 50 mg/kg, days 0, 1, 2, 3, and 4
[13] = 100 mg/kg, days 0, 1, 2, 3, and 4
[14] = 200 mg/kg, days 0, 1, 2, 3, and 4
[15] = After Stage 1 Treatment (L-Glu-L-Trp only)
[16] = 20 mg/kg, days 0, 1, 2, 3, and 4 (Group 8)
[17] = 20 mg/kg, days −2, −1, 0, +1, and +2 (Group 10)

## Cc1cn([C@H]2C[C@H](N=[N+]=[N-])[C@@H](CO)O2)c(=O)[nH]c1=O [AZT, reference compound]
[1]; [11]
  Reduction Splenomegaly (%): 46%
  Spleen Weight (mean ± SD): 0.31 ± 0.05
[1]; [12]
  Reduction Splenomegaly (%): 33%
  Spleen Weight (mean ± SD): 0.35 ± 0.17
[1]; [13]
  Reduction Splenomegaly (%): 52%
  Spleen Weight (mean ± SD): 0.29 ± 0.02
[1]; [14]
  Reduction Splenomegaly (%): 46%
  Spleen Weight (mean ± SD): 0.31 ± 0.09

## C[C@@H]1[C@H](O)[C@@H](C)/C=C/C=C/C=C/C=C/C=C/C=C/C=C/[C@H](O[C@@H]2O[C@H](C)[C@@H](O)[C@H](N)[C@@H]2O)C[C@@H]2O[C@](O)(C[C@@H](O)C[C@@H](O)[C@H](O)CC[C@@H](O)C[C@@H](O)CC(=O)O[C@H]1C)C[C@H](O)[C@H]2C(=O)O [Amphotericin, reference compound]
[2]; 0.063 mg/kg
  Germ Tube (%): 20* %
[2]; 0.125 mg/kg
  Germ Tube (%): 17* %
[2]; 0.25 mg/kg
  Germ Tube (%): 14* %
[2]; 0.5 mg/kg
  Germ Tube (%): 3* %
[2]; 1 mg/kg
  Germ Tube (%): 1* %

## CC1(C)S[C@@H]2[C@H](NC(=O)[C@H](N)c3ccccc3)C(=O)N2[C@H]1C(=O)O [Ampicillin, reference compound]
[3]; [15]
  Mean minimum inhibitory concentration (MIC): 2.64 ± 0.60 µg/mL
[3]; Before Treatment
  Mean minimum inhibitory concentration (MIC): 8.10 ± 0.49 µg/mL
[4]; 24 hours after injection
  Percentage Survivors: 33.3* %
[4]; 48 hours after injection
  Percentage Survivors: 22.2* %
[4]; 72 hours after injection
  Percentage Survivors: 22.2* %
[5]; 24 hours
  Percentage Survivors: 75.0* %
[5]; 48 hours
  Percentage Survivors: 44.4* %
[5]; 72 hours
  Percentage Survivors: 30.6* %
[6]; 24 hours
  Percentage Survivors: 75* %
[6]; 48 hours
  Percentage Survivors: 44.4* %
[6]; 72 hours
  Percentage Survivors: 30.6* %
[6]; ip one hour after bacterial challenge
  Mean effective dose (MED) for 100% survival after one LD50 dose of methicillin-sensitive staphylococci: 100 mg/kg

## Cc1nnc(SCC2=C(C(=O)O)N3C(=O)[C@@H](NC(=O)Cn4cnnn4)[C@H]3SC2)s1 [Cephamezine]
[3]; [15]
  Mean minimum inhibitory concentration (MIC): 1.33 ± 0.53 µg/mL
[3]; Before Treatment
  Mean minimum inhibitory concentration (MIC): 3.52 ± 0.94 µg/mL

## O=C(Cc1cccs1)N[C@@H]1C(=O)N2C(C(=O)[O-])=C(C[n+]3ccccc3)CS[C@H]12 [Ceporin]
[3]; [15]
  Mean minimum inhibitory concentration (MIC): 1.82 ± 0.67 µg/mL
[3]; Before Treatment
  Mean minimum inhibitory concentration (MIC): 5.69 ± 0.86 µg/mL

## CN[C@@H]1[C@@H](O)[C@@H](O[C@@H]2[C@@H](O)[C@H](O[C@H]3OC(CN)=CC[C@H]3N)[C@@H](N)C[C@H]2N)OC[C@]1(C)O [Cisomycin]
[3]; [15]
  Mean minimum inhibitory concentration (MIC): 1.59 ± 0.58 µg/mL
[3]; Before Treatment
  Mean minimum inhibitory concentration (MIC): 3.46 ± 0.90 µg/mL

## c1ccc([C@H]2CN3CCSC3=N2)cc1 [Descaris]
[7]; Group 1, Pre-Treatment ALCT Activity None
  Percent of Subjects Disease Free at 6 Months After Treatment: 100%
[7]; Group 2, Pre-Treatment ALCT Activity Moderate
  Percent of Subjects Disease Free at 6 Months After Treatment: 67%
[7]; Group 3, Pre-Treatment ALCT Activity High
  Percent of Subjects Disease Free at 6 Months After Treatment: 67%

## NC[C@H]1O[C@H](O[C@H]2[C@H](O)[C@@H](O[C@H]3O[C@H](CO)[C@@H](O)[C@H](N)[C@H]3O)[C@H](N)C[C@@H]2N)[C@H](O)[C@@H](O)[C@@H]1O [Kanamycin]
[3]; [15]
  Mean minimum inhibitory concentration (MIC): 2.09 ± 0.54 µg/mL
[3]; Before Treatment
  Mean minimum inhibitory concentration (MIC): 6.32 ± 0.58 µg/mL

## CC(=O)OCC1=C(C(=O)O)N2C(=O)[C@@H](NC(=O)Cc3cccs3)[C@H]2SC1 [Keflin]
[3]; [15]
  Mean minimum inhibitory concentration (MIC): 1.86 ± 0.69 µg/mL
[3]; Before Treatment
  Mean minimum inhibitory concentration (MIC): 4.49 ± 0.93 µg/mL

## Cc1nnc(SCC2=C(C(=O)O)N3C(=O)[C@@H](NC(=O)Cn4cnnn4)[C@H]3SC2)s1 [Kefzol]
[3]; [15]
  Mean minimum inhibitory concentration (MIC): 1.86 ± 0.93 µg/mL
[3]; Before Treatment
  Mean minimum inhibitory concentration (MIC): 4.61 ± 0.87 µg/mL

## O=C(N[C@H](CO)[C@H](O)c1ccc([N+](=O)[O-])cc1)C(Cl)Cl [Levomycetin]
[3]; [15]
  Mean minimum inhibitory concentration (MIC): 4.58 ± 0.67 µg/mL
[3]; Before Treatment
  Mean minimum inhibitory concentration (MIC): 9.17 ± 0.36 µg/mL

## Cc1onc(-c2ccccc2)c1C(=O)N[C@@H]1C(=O)N2[C@@H]1SC(C)(C)[C@@H]2C(=O)O [Oxacillin]
[3]; [15]
  Mean minimum inhibitory concentration (MIC): 1.56 ± 0.45 µg/mL
[3]; Before Treatment
  Mean minimum inhibitory concentration (MIC): 5.11 ± 0.63 µg/mL

## CC1(C)S[C@@H]2[C@H](NC(=O)Cc3ccccc3)C(=O)N2[C@H]1C(=O)O [Penicillin]
[3]; [15]
  Mean minimum inhibitory concentration (MIC): 2.52 ± 0.70 µg/mL
[3]; Before Treatment
  Mean minimum inhibitory concentration (MIC): 9.45 ± 0.28 µg/mL

## [H]/N=C(/N)N[C@H]1[C@H](O)[C@@H](O)[C@H](O[C@@H]2O[C@@H](C)[C@](O)(C=O)[C@H]2O[C@@H]2O[C@@H](CO)[C@H](O)[C@@H](O)[C@@H]2NC)[C@@H](N/C(N)=N\[H])[C@@H]1O [Streptomycin]
[3]; [15]
  Mean minimum inhibitory concentration (MIC): 3.39 ± 0.66 µg/mL
[3]; Before Treatment
  Mean minimum inhibitory concentration (MIC): 6.71 ± 0.59 µg/mL

## O=P1(N(CCCl)CCCl)NCCCO1 (centres unmarked) [cyclophosphamide, Cyclophosphamide, reference compound]
[8]; dose 50 (μg/kg), reference treatment
  % Cytotoxicity (mean +/− S.D.): 6.4 ± 0.7%
[8]; dose 50, vs saline
  Cytotoxicity Change (%): −25 ↓ %
[8]; reference treatment
  NK activity: decreased NK activity

## c1ccc([C@H]2CN3CCSC3=N2)cc1 [decaris]
[9]
  Considerable Improvement, % of patients: 5%
  Considerable Improvement, No. of patients: 1
  Improvement, % of patients: 82%
  Improvement, No. of patients: 18
  No Change, % of patients: 13%
  No Change, No. of patients: 3
  Patients with closure of degeneration foci and cavities in the lungs: 10
  Patients with closure of foci and cavities: 45%
  Patients with “considerable improvement”: 5%
  Patients with “improvement”: 18
  Response rate: 86%

## Gentamycin [reference compound]
[3]; [15]
  Mean minimum inhibitory concentration (MIC): 1.32 ± 0.49 µg/mL
[3]; Before Treatment
  Mean minimum inhibitory concentration (MIC): 5.47 ± 0.92 µg/mL
[10]; 24 hours after injection
  Percentage Survivors: 27.8* %
[10]; 48 hours after injection
  Percentage Survivors: 27.8* %
[10]; 96 hours after injection
  Percentage Survivors: 27.8* %

## Poly(IC)
[1]; [16]
  Reduction Splenomegaly (%): 27%
  Spleen Weight (mean ± SD): 0.37 ± 0.22
[1]; [17]
  Reduction Splenomegaly (%): −78%
  Spleen Weight (mean ± SD): 0.72 ± 0.29
